Measurements reported in patent US20250282802A1, “P[…] AND METHODS” (priority 2020, published 2025).
Read-outs that look alike come from different tables or passages of the source.

What was measured:
onion bulbs = assay: Onion bioactivity assay (center rot); format: in vivo, Allium cepa (onion); conditions: 30° C.
Protocol: Onion bioactivity assays. Yellow onions purchased from a local market were surface sterilized in a laminar flow biosafety hood as follows. First, the outermost layers with any damage or browning were removed and discarded, followed by soaking for 10 minutes in 10% bleach. The onions were then rinsed three times with sterile dH2O, followed by soaking in 70% EtOH for an additional 10 minutes, then rinsed four times with sterile dH2O. The onions were left in a biosafety laminar flow hood until water and ethanol were completely evaporated. For testing virulence of microbial strains, the onions were inoculated by stabbing with a previously sterilized wooden toothpick dipped into a bacterial cell suspension (1×10^3 CFU/mL in 1×PBS buffer). Chemical complementation studies were performed by addition of 100 μL of filter-sterilized sample into the hole created by the toothpick during inoculation. For testing bioactivity of crude and purified chemical samples in the absence of bacteria, holes were punched in sterilized onions using sterile toothpicks followed by addition of 100 μL of a filter-sterilized sample. Following inoculation and/or treatment with filter-sterilized compounds, the onions were placed in zip-lock plastic bags and incubated at 30° C. in the dark for the indicated number of days. […]

[1] = system: HCT-116 (human colon cancer); assay: Cell culture cytotoxicity screening (Alamar Blue), HCT-116; format: cell-based; conditions: HCT-116, Alamar Blue, 72 hours
Protocol: FIG. 8. Cytotoxicity of pantaphos across various cancer cell lines. Assays were conducted as described (mBio. 2021 Feb. 2; 12(1):e03402-20), using the Alamar Blue method with 72-hour treatment using Raptinal ([…]) as Dead cell control; n=3. Cell seeding densities: CT26 (colon carcinoma) 2000 c/w; HOS (osteosarcoma) 2500 c/w; ES-2 (ovarian carcinoma), HCT-116 (colorectal carcinoma), A-549 (lung carcinoma), A-172 (glioblastoma), D54 (glioblastoma), U87 (glioblastoma), T98G (glioblastoma), SK-ML-28 (melanoma), MCF-7 (breast cancer), AM38 (glioblastoma) and MDA-MB-231 (breast cancer) 3000 c/w; U118MG (malignant glioma) 4000 c/w; HepG2 (liver cancer) 8000 c/w. c/w=cells per well. […]
Cell culture cytotoxicity screening. The compounds were evaluated for their ability to kill cancer cell lines in culture, using HOS (osteosarcoma); ES-2 (ovarian cancer); HCT 116 (colon cancer); A549 (lung carcinoma); and A172 (glioma) cells. Human skin fibroblast cells (HFF-1) were also assessed. […] 72 hours post-treatment, cell viability was assessed using the Alamar Blue method (http://www.bio-rad-antibodies.com/measuring-cytotoxicity-proliferation-spectrophotometry-fluorescence-alamarBlue.html). […] Conversion of Alamar Blue was measured with a plate reader (SpectraMax M3; Molecular Devices) by fluorescence (excitation wavelength: 555 nm; emission wavelength: 585 nm; cutoff 570 nm; autogain). […]

[2] = system: A-172 (human glioma cancer); assay: Cell culture cytotoxicity screening (Alamar Blue), A-172; format: cell-based
Protocol: FIG. 8. Cytotoxicity of pantaphos across various cancer cell lines. Assays were conducted as described (mBio. 2021 Feb. 2; 12(1):e03402-20), using the Alamar Blue method with 72-hour treatment using Raptinal ([…]) as Dead cell control; n=3. Cell seeding densities: CT26 (colon carcinoma) 2000 c/w; HOS (osteosarcoma) 2500 c/w; ES-2 (ovarian carcinoma), HCT-116 (colorectal carcinoma), A-549 (lung carcinoma), A-172 (glioblastoma), D54 (glioblastoma), U87 (glioblastoma), T98G (glioblastoma), SK-ML-28 (melanoma), MCF-7 (breast cancer), AM38 (glioblastoma) and MDA-MB-231 (breast cancer) 3000 c/w; U118MG (malignant glioma) 4000 c/w; HepG2 (liver cancer) 8000 c/w. c/w=cells per well. IC50 and Emax values shown in Table 6 were extracted from the raw data plotted in FIG. 8.
Cell culture cytotoxicity screening. The compounds were evaluated for their ability to kill cancer cell lines in culture, using HOS (osteosarcoma); ES-2 (ovarian cancer); HCT 116 (colon cancer); A549 (lung carcinoma); and A172 (glioma) cells. Human skin fibroblast cells (HFF-1) were also assessed. Cells were seeded (3000 cells well^−1 for ES-2, HCT 116, A549 and A172; 4000 cells well^−1 for HFF-1 and 2500 cells well^−1 for HOS) in a 96-well plate and allowed to attach overnight. Cells were treated with pantaphos in water. The concentrations of the tested compounds were 5 nM to 100 μM (1% water final; 100 μl well^−1). Raptinal (50 μM) was used as a dead control. On each plate, five technical replicates per compound were performed. 72 hours post-treatment, cell viability was assessed using the Alamar Blue method (http://www.bio-rad-antibodies.com/measuring-cytotoxicity-proliferation-spectrophotometry-fluorescence-alamarBlue.html). Alamar Blue solution (10 μl of 440 μM resazurin in sterile 1×PBS) was added to each well, and the plate was incubated for 3-4 hrs. Conversion of Alamar Blue was measured with a plate reader (SpectraMax M3; Molecular Devices) by fluorescence (excitation wavelength: 555 nm; emission wavelength: 585 nm; cutoff 570 nm; autogain). Percentage death was determined by normalizing to water-treated cells and Raptinal-treated cells. For IC50 determination, the data were plotted as compound concentration versus dead cell percentage and fitted to a logistic-dose-response curve using OriginPro 2019 (OriginLab). The data were generated in triplicate, and IC50 values are reported as the average of three separate experiments along with SEM values.

[3] = system: Staphylococcus aureus ATCC 29213; assay: Antibacterial bioassay (MIC), Staphylococcus aureus; format: cell-based; conditions: CLSI
Protocol: Antibacterial bioassays. Susceptibility testing for the ESKAPE pathogens and Salmonella enterica LT2 was performed using a Kirby-Bauer method as outlined by the Clinical and Laboratory Standards Institute (CLSI). For rich media bioassays, Mueller Hinton Broth 2 (MH-2, Sigma-Aldrich, 90922) was used for all strains except 1% BHI was supplemented for Enterococcus faecalis ATCC 19433. For minimal media bioassays, glucose-MOPS minimal medium was used. Briefly, overnight bacterial cultures were sub-cultured and inoculated into 5 mL top agar (0.7% agar) for final concentration of 5×10^5 CFU/mL. Then, 20 μL of a compound 2-fold dilution series (200, 100, 50, 25, 12.5, 6.25 μM in water) was spotted on 6 mm diameter blank paper discs (BD BBL™ 231039). Control discs received 20 μL of 50 mg/mL kanamycin. Plates were incubated at 35° C. for 20-24 hours. […] Sensitivity of the IPTG-inducible phosphonate uptake strain WM6242 to pantaphos was tested using a disk diffusion assay. Plates containing growth medium were overlayed with 5 mL of top agar (0.7% agar) inoculated with 100 μL (OD600=0.8) of the phosphonate-specific E. coli indicator strain (WM6242) with or without addition of 1 mM IPTG. WM6242 is engineered with an IPTG-inducible, non-specific phosphonate uptake system (phnCDE). […]

Question: `O=C(O)/C=C(\C(=O)O)C(O)P(=O)(O)O` (stereo not shown) [pantaphos, 2-(hydroxy(phosphono)methyl)maleate] was tested. Which “onion center rot on co-inoculation with the P. ananatis hvr deletion mutant (chemical complementation)” value (onion bulbs; co-inoculated with hvr mutant) did it give?
Answer: The value was “resulted in onion rot”.

Question: What about the “onion rot lesions after injection in the absence of bacteria” value (onion bulbs; surface sterilized onion bulbs, 100 μL filter-sterilized sample, no bacteria) of the same molecule?
Answer: Its value is “severe onion rot lesions”.

Question: And the IC50 [1]?
Answer: Its IC50 is 10400 ± 2000 nM.

Question: And the Emax ([1]; read-out: Emax = percentage cell death (converted))?
Answer: Its Emax is 59%.

Question: And the IC50 ([2]; A 172, 72 h, A-172, Alamar Blue, 72-hour treatment (Table 6))?
Answer: The IC50 was 1010 ± 60 nM.

Question: And the IC50 ([2]; A 172, 72 h, A-172, Alamar Blue, 72 hours)?
Answer: The IC50 was 1000 nM.

Question: What about the IC50 ([2]; A 172, A-172 (text of Example 5)) of the same molecule?
Answer: The IC50 was 1000 nM.

Question: What about the Emax ([2]; A-172, Alamar Blue, 72 hours, read-out: Emax = percentage cell death (converted)) of the same molecule?
Answer: The Emax was 99%.

Question: What about the MIC ([3]; ATCC29213, Mueller-Hinton 2 medium, read-out: MIC, Rich medium) of the same molecule?
Answer: Its MIC is over 200 µM.

Question: What about the MIC ([3]; ATCC29213, glucose-MOPS minimal medium, read-out: MIC, Minimal medium) of the same molecule?
Answer: Its MIC is over 200 µM.
